Legend:
Assay in all cases: relative viability (nuclei count vs DMSO), 5 days (fraction); higher = more cells survive
Zosuquidar + Luminespib = compound: O[C@@H](COc1cccc2ncccc12)CN1CCN([C@@H]2c3ccccc3[C@@H]3[C@H](c4ccccc42)C3(F)F)CC1 [Zosuquidar] + CCNC(=O)c1noc(-c2cc(C(C)C)c(O)cc2O)c1-c1ccc(CN2CCOCC2)cc1 [Luminespib] (partner 0.01 µM)
How it was run: (§1)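 For relative viability, nuclei counts in treated wells were divided by those in vehicle wells. Lung cancer cell lines had been pin-tool dosed in 1536-well plates the day after seeding and cultured for 5 days, then fixed and stained in one step (final 0.05% Triton X-100, 1% formaldehyde, 1 ug/ml Hoechst) and imaged at 4×. Doses were one drug alone or a fixed anchor-drug dose plus five library-drug doses (not always all listed) in √10 steps, and values are duplicate-plate medians.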

Cabozantinib + Alpelisib = compound: COc1cc2nccc(Oc3ccc(NC(=O)C4(C(=O)Nc5ccc(F)cc5)CC4)cc3)c2cc1OC [Cabozantinib] + Cc1nc(NC(=O)N2CCC[C@H]2C(N)=O)sc1-c1ccnc(C(C)(C)C(F)(F)F)c1 [Alpelisib] (partner 2 µM)
How it was run: as §1

Kobe2602 + Palbociclib = compound: C1=CC(=CC=C1NC(=S)NNC2=C(C=C(C=C2[N+](=O)[O-])C(F)(F)F)[N+](=O)[O-])F [Kobe2602] + CC(=O)c1c(C)c2cnc(Nc3ccc(N4CCNCC4)cn3)nc2n(C2CCCC2)c1=O [Palbociclib] (partner 0.5 µM)
How it was run: as §1

[1] = compound: COc1cc2nccc(Oc3ccc(NC(=O)C4(C(=O)Nc5ccc(F)cc5)CC4)cc3)c2cc1OC [Cabozantinib] + CC(=O)Nc1cccc(-n2c(=O)n(C3CC3)c(=O)c3c(Nc4ccc(I)cc4F)n(C)c(=O)c(C)c32)c1 [Trametinib] (partner 0.02 µM)
How it was run: as §1

Row | Cell Line | relative viability (Zosuquidar + Luminespib; first compound 0.01 µM) | relative viability (Zosuquidar + Luminespib; first compound 0.03162 µM) | relative viability (Zosuquidar + Luminespib; first compound 0.1 µM) | relative viability (Zosuquidar + Luminespib; first compound 0.3162 µM) | relative viability (Zosuquidar + Luminespib; first compound 1 µM) | relative viability (Cabozantinib + Alpelisib; first compound 0.02 µM) | relative viability (Cabozantinib + Alpelisib; first compound 0.06325 µM) | relative viability (Cabozantinib + Alpelisib; first compound 0.2 µM) | relative viability (Cabozantinib + Alpelisib; first compound 0.6325 µM) | relative viability (Cabozantinib + Alpelisib; first compound 2 µM) | relative viability (Kobe2602 + Palbociclib; first compound 0.2 µM) | relative viability (Kobe2602 + Palbociclib; first compound 0.6325 µM) | relative viability (Kobe2602 + Palbociclib; first compound 2 µM) | relative viability (Kobe2602 + Palbociclib; first compound 6.325 µM) | relative viability (Kobe2602 + Palbociclib; first compound 20 µM) | relative viability ([1]; first compound 0.02 µM) | relative viability ([1]; first compound 0.06325 µM) | relative viability ([1]; first compound 0.2 µM) | relative viability ([1]; first compound 0.6325 µM) | relative viability ([1]; first compound 2 µM)
1 | COR-L23 | 0.619 | 0.631 | 0.747 | 0.777 | 0.776 | 0.717 | 0.883 | 0.855 | 0.699 | 0.59 | 0.31 | 0.296 | 0.275 | 0.318 | 0.333 | 0.666 | 0.679 | 0.679 | 0.623 | 0.576
2 | NCI-H2009 | 1 | 1.07 | 0.986 | 1.02 | 0.989 | 1.25 | 1.21 | 1.16 | 1.14 | 1.21 | 0.241 | 0.258 | 0.294 | 0.24 | 0.254 | 0.276 | 0.281 | 0.293 | 0.275 | 0.24
3 | NCI-H322M | 0.754 | 0.886 | 0.664 | 0.862 | 0.727 | 0.77 | 0.881 |  | 0.846 | 0.773 | 0.477 | 0.535 | 0.485 | 0.491 | 0.559 | 0.521 | 0.546 | 0.438 | 0.525 | 0.545
4 | NCI-H2228 | 0.124 | 0.163 | 0.185 | 0.171 | 0.206 | 0.794 | 0.922 | 0.784 | 0.564 | 0.711 | 0.843 | 0.625 | 0.687 | 0.691 | 0.838 | 0.4 | 0.61 | 0.594 | 0.704 | 0.479

From the supplement of paper PMC10307832
